The record followed here is ChEMBL document CHEMBL6078647 (J Med Chem, 2024).

Data set [1] addresses T1, Type-1 angiotensin II receptor (Homo sapiens, UniProt P30556).
T1 sequence (P30556 whole entry): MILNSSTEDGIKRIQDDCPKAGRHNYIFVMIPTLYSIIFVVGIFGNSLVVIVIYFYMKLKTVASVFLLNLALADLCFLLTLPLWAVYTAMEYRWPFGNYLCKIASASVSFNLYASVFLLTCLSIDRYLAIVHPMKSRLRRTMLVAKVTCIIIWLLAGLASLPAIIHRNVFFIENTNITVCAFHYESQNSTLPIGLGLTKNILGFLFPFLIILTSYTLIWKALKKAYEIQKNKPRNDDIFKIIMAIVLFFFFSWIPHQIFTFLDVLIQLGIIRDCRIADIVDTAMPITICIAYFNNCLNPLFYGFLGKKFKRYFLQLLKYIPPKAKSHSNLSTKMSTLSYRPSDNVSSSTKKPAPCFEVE
Description: Binding affinity to human AT1R extracted from HEK293T cell membrane assessed as inhibition constant in presence of [125I][Sar1 Ile8]-angiotensin II by competitive radioligand binding assay. The conditions noted are these: read-out: Ki. Type of data set: cell membranes.

The target of data set [2] is T2, Type-2 angiotensin II receptor (Homo sapiens, UniProt P50052).
T2 sequence (P50052 whole entry): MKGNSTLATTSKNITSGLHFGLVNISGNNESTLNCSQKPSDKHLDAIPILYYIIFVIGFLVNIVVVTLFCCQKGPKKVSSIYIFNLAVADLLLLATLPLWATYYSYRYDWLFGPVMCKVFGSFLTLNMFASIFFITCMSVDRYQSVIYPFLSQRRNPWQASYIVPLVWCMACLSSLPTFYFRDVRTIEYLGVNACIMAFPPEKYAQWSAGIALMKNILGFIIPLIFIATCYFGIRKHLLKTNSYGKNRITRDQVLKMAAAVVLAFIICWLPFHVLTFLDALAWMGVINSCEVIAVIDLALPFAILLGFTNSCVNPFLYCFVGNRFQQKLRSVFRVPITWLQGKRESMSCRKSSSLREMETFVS
In words: Binding affinity to human AT2R extracted from HEK293T cell membrane assessed as inhibition constant in presence of [125I][Sar1 Ile8]-angiotensin II by competitive radioligand binding assay. Type of data set: cell membranes.

Another data set is filed under the species Homo sapiens. Description: Selectivity index, ratio of Ki for binding affinity to human AT2R extracted from HEK293T cell membrane in presence of [125I][Sar1 Ile8]-angiotensin II by competitive radioligand binding assay to Ki for binding affinity to human AT1R extracted from HEK293T cell membrane in presence of [125I][Sar1 Ile8]-angiotensin II by competitive radioligand binding assay.

The nature of data set [3]: Fluorescence property of compound in HEPES buffer assessed as quantum yield. Type of data set: physicochemical.
For data set [4], the target named is T3, Type-1 angiotensin II receptor (Homo sapiens) (UniProt P30556).
T3 sequence (whole entry): T1 sequence (P30556 whole entry)
Description: Induction of human NLuc-tagged AT1R (unknown origin) internalization in HEK293 cells co expressing venus-MP assessed as inhibition of AgII-induced AT1R internalization using NanoGlo as substrate preincubated for 30 mins followed by substrate addition for 10 mins by BRET assay. The data set is classed as functional.

The target of data set [5] is T3, Type-1 angiotensin II receptor (Homo sapiens). In words: Binding affinity to human GFP-tagged AT1R (unknown origin) extracted from HEK293 cell membrane assessed as colocalization of AT1R in plasma membrane at 30 nM preincubated with losartan at 10 uM followed by compound addition for 30 mins by epifluorescence microscopic analysis. The data set is classed as cell membranes. The conditions noted are these: filed as antagonist.

Data set [6] shares this target. In words: Binding affinity to Flag-tagged AT1R (unknown origin) extracted from HEK293 cell membrane assessed as increase in median red fluorescence intensity at 1 nM incubated for 15 mins by flow cytometric analysis. The data set is classed as cell membranes. Particulars: filed as antagonist. Background: In flow cytometry, cells or beads pass a laser one at a time.

The target is the same in data set [7]. Description: Binding affinity to Flag-tagged AT1R (unknown origin) extracted from HEK293 cell membrane assessed as increase in median red fluorescence intensity at > 30 nM incubated for 30 mins by flow cytometric analysis. Type of data set: cell membranes.
The target is the same in data set [8]. Description: Binding affinity to GFP-tagged AT1R (unknown origin) extracted from HEK293 cell membrane assessed as fluorescent signal in plasma membrane incubated for 15 mins by confocal microscopic analysis. Type of data set: cell membranes. Particulars: filed as antagonist.
Data set [9] has as its target T4, Type-2 angiotensin II receptor (Homo sapiens) (UniProt P50052).
T4 sequence (whole entry): T2 sequence (P50052 whole entry)
In words: Binding affinity to GFP-tagged AT2R (unknown origin) extracted from HEK293 cell membrane assessed as fluorescent signal in plasma membrane incubated for 15 mins by confocal microscopic analysis. Type of data set: cell membranes.

Data set [10] concerns the target T1, Type-1 angiotensin II receptor. Description: Binding affinity to GFP-tagged AT1R (unknown origin) extracted from HEK293 cell membrane assessed as dissociation constant. The data set is classed as cell membranes.
For data set [11] the target is unchanged. In words: Antagonist activity at Flag-tagged AT1R (unknown origin) extracted from HEK293 cell membrane co expressing YPET-ARRB1 assessed as beta-arrestin 1 recruitment using NanoGlo as substrate preincubated for 30 mins followed by substrate addition for 10 mins by BRET assay. The data set is classed as functional, cell membranes. A general note: Arrestin recruitment assays detect the binding of arrestin to an activated receptor.

For data set [12] the target is unchanged. In words: Antagonist activity at Flag-tagged AT1R (unknown origin) extracted from HEK293 cell membrane co expressing YPET-ARRB2 assessed as beta-arrestin 2 recruitment using NanoGlo as substrate preincubated for 30 mins followed by substrate addition for 10 mins by BRET assay. Type of data set: functional, cell membranes.
The target is the same in data set [13]. In words: Antagonist activity at Flag-tagged AT1R (unknown origin) extracted from HEK293 cell membrane assessed as increase in intracellular calcium incubated for 30 mins by microplate reader analysis. The data set is classed as functional, cell membranes.

Calls of active or inactive are those of the source. No cut-off for these calls is given here.

A word on the Kd: it is the constant that tells how readily two partners part at equilibrium.

Consider `CCCCc1nc(Cl)c(C(=O)NCCOCCOCCNC(=O)CCCCCN2/C(=C/C=C/C3=[N+](C)c4ccccc4C3(C)C)C(C)(C)c3ccccc32)n1Cc1ccc(-c2ccccc2-c2nn[nH]n2)cc1.F[B-](F)(F)F`, for which the Ki was 0.0107 µM in data set [1], 5.57 µM in data set [2] (read-out: Ki) and 3.02 µM in [2] (read-out: pKi (converted)). Also, the Ratio Ki in the data set listed under Homo sapiens worked out at 521. Also, the Activity is 0.232 in data set [3] and “Dose-dependent-effect” in [4]. Moreover, the outcome in data set [5], in [6] and in data set [8] was Active. Also, the outcome in data set [7] and in data set [9] was inactive. Further, the Kd in data set [10] was around 0.03 µM. Also, the EC50 result in data set [11], in data set [12] and in data set [13] was “Active” in each case.
